Experimental data taken from patent US11168052B2, “Carbamate derivative compounds, processes for preparing them and their uses” (BIO-PHARM SOLUTIONS CO., LTD., priority 2016, dated 2021).

Columns and labels:
[1] = system: CFA-induced pain model in rats; test: Antiallodynic activity on Complete Freund's Adjuvant (CFA)-induced inflammatory pain model; type: in vivo, Sprague-Dawley rats; settings: 50 mg/kg intraperitoneally, von Frey threshold relative to sham, 0.5 hr after administration; for response vs control in vivo at 50 mg/kg: Rattus norvegicus, ip, read-out: Efficacy of 50 mg/kg(%)
Description: Male, Sprague-Dawley rats (210-250 g, Nara Bio, Korea) were habituated for 1 week before surgery and allowed free access to food and water throughout the experimentation. Room temperature and humidity were maintained at 24±2 and 50±10%, respectively.
CFA-induced inflammatory pain was induced by the procedure of Nagakura et al. (2003) and Gregory P. et al. (2010) with minor modifications. CFA (sigma, USA) was injected in the right plantar with a 100 ul volume under gaseous anesthesia with isoflurane. Sham controls were injected with 100 ul of saline, and preparation of the vehicle controls were identical to the group treated with compound, except for administration of vehicles without indentical to the vihecle control group.
Tactile sensitivity (Mechanical allodynia) was evaluated using von Frey monofilaments before and after treatment, and animals were include in the study only if the withdrawal threshold value was less than 4 g. One week after CFA injection, CFA-infused animals, sham-operated animal, and vehicle-operated animals were tested for tactile sensitivity with von Frey monofilaments, with 3 trials for each animal. All Animals were placed in a stainless steel mashe chamber and habituated for 30 min in the test cage. The tactile sensitivity for ipsilateral hind paw was measured using the up-and-down method (Dixon, 1980) with seven von Frey monofilaments (0.4, 1, 2, 4, 6, 8, and 15 g) to 3 trials. The tactile sensitivity test was followed by Dixon's method (Dixon, 1980). The 50% paw withdrawal threshold for each paw was calculated using the following formula: [Xth]log=[vFr]log+ky where [vFr] is the force of the last von Frey used, k=0.2249 which is the average interval (in log units) between the von Frey monofilaments, and y is a value that depends upon the pattern of withdrawal responses (Dixon, 1980).
Antiallodynic effect of compounds was evaluated at the dose of 50 mg/kg (n=4-6), intraperitoneally administrated in a volume of 5 ul/g bw in a vehicle of 30% (v/v) PEG or 20% (v/v) Tween 80. The test was performed peak time of efficacy (0.5 hr) after compound administration.
The relative values compared to the sham (% control) were calculated and shown in Table 5, which show an antiallodynic effect of Compound 1 on CFA-induced pain model in rats.

[2] = system: MES (electroshock) seizure in mice; test: Anti-epilepsy activity, MES test in mouse; type: in vivo, ICR mice
Description: (§1) In the MES test (Ref., G. Villetti et al. Neuropharmacology 40(2001) 866-878), an electrical stimulus (mice: 50 mA, 60 Hz, 0.2 sec, and rats: 150 mA, 60 Hz, 0.2 sec in the test animal) supplied by an 11A Shocker (IITC Life Science Company) was delivered through corneal electrodes. All mice or rats assigned to any electroshock at peak time were treated with each test compound sample which was dissolved in 20% tween 80 prepared by saline solvent applied orally before the test. […] Three doses of the test sample were administered orally to 9-18 animals (3-6 mice per dose) for evaluating the respective doses at which 50% of the animals were protected from seizure (ED50). The ED50 value (median effective dose) was calculated by Litchfield and Wicoxon log-probit method which is a dose-response relationship. Experimental animals, male ICR mice and male SD rats, were purchased from OrientBio, Samtako, or Nara Biotech, Korea, and housed in cages (4-5 mice or 3 rats per cage) for 4-5 days. The range of mice body weight was between 19 and 25 grams and range of rats body weight was between 100 and 130 grams.

[3] = system: Lithium-pilocarpine induced seizure in rats; test: Lithium-pilocarpine induced epilepsy test (LI-PILO), prevention test; type: in vivo, Sprague-Dawley rats; settings: i.p., dose 100 mg/kg
Description: Male Sprague-Dawley rats (purchased from Orient Bio Inc. Korea) of body weight 175 grams were used for these studies and 3 rats per cage were housed for 4-5 days. On the day prior to SE, rats received 127 mg/kg lithium chloride (Sigma, St. Louis, Mo., U.S.A.) intraperitoneally (i.p.). Approximately 18-20 h following this treatment, rats were given an i.p. injection of the concentration capable of inducing 97% intermittent convulsions pilocarpine(Sigma, 30-43 mg/kg). An i.p. injection of 2 mg/kg methyl-scopolamine (Sigma) was administered 30 min prior to pilocarpine to block the effects of the muscarinic agonist on peripheral cholinergic receptors. Test drugs were dissolved in 20% tween80 (Sigma).
The drugs were administered intraperitoneally (i.p.) in a volume of 2 μl/g body weight. Pharmacological effects of all of the test materials were evaluated to compare test groups (n=6) with a control group (n=6). Control group was administered vehicle only. The efficacy was measured 0.5, 1, 2, or 4 hours after the administration of the test material. The time point that the most animals were protected was defined as peak time and the ED50 was determined at peak time. The animals were then transferred to observation cages and observed continuously for 90 min Seizure was elicited in approximately 95% of the control group. Protection was defined as complete absence of seizure grade 3-5 (Racine scale; Racine, 1972) over the 90-min observation period. The effective dose of the compound necessary to protect 50% of the animals against seizures compared to controls (i.e., ED50) was determined by a curve fitting program (Excel 2007, Microsoft).

[4] = system: MES (electroshock) seizure in rats; test: Anti-epilepsy activity, MES test in rats; type: in vivo, SD rats; settings: Rattus norvegicus, po
Description: as §1

[5] = po, read-out: MES test (po) efficacy %

| Compound | response vs control in vivo at 50 mg/kg [1] | responders at 100 mg/kg [2, 5] | other results |
| --- | --- | --- | --- |
| 8-chloro-2-hydroxy-1,2,3,4-tetrahydronaphthalen-1-yl carbamate (mixture of SR & RS) [Example 20] | – | – | Efficacy of 50 mg/kg(%) [1]: 40.2%; MES test (po) ED50 [2]: 31.4 mg/kg |
| NC(=O)O[C@@H]1CCc2cccc(Cl)c2[C@H]1O [Example 4, (1R, 2R)-8-chloro-1-hydroxy-1,2,3,4-tetrahydronaphthalen-2-yl carbamate] | – | – | ED50 ([2]; po): 80.6 mg/kg |
| NC(=O)O[C@@H]1CCc2ccc(Cl)cc2[C@@H]1O [Example 6, (1S, 2R)-7-chloro-1-hydroxy-1,2,3,4-tetrahydronaphthalen-2-yl carbamate] | 26.8% | 33.3% | – |
| NC(=O)O[C@H]1CCc2ccc(Cl)cc2[C@H]1O [Example 7] | 28.6% | – | responders at 150 mg/kg ([2]; po, dose 150 mg/kg, read-out: MES test (po) efficacy %): 100% |
| NC(=O)O[C@@H]1CCc2cc(Cl)ccc2[C@@H]1O [Example 8, (1S, 2R)-6-chloro-1-hydroxy-1,2,3,4-tetrahydronaphthalen-2-yl carbamate] | – | 100% | – |
| NC(=O)O[C@H]1CCc2cc(Cl)ccc2[C@H]1O [Example 9, (1R, 2S)-6-chloro-1-hydroxy-1,2,3,4-tetrahydronaphthalen-2-yl carbamate] | 27.5% | – | – |
| NC(=O)O[C@@H]1CCc2cccc(I)c2[C@@H]1O [Example 12, (1S, 2R)-1-hydroxy-8-iodo-1,2,3,4-tetrahydronaphthalen-2-yl carbamate] | 38.5% | 100% | – |
| NC(=O)O[C@H]1CCc2cccc(I)c2[C@H]1O [Example 13, (1R, 2S)-1-hydroxy-8-iodo-1,2,3,4-tetrahydronaphthalen-2-yl carbamate] | 43.1% | 33.3% | – |
| NC(=O)O[C@@H]1CCc2ccccc2[C@@H]1O [Example 14, (1S, 2R)-1-hydroxy-1,2,3,4-tetrahydronaphthalen-2-yl carbamate] | – | 100% | – |
| NC(=O)O[C@H]1c2ccccc2CC[C@H]1O [Example 16, (1S, 2R)-2-hydroxy-1,2,3,4-tetrahydronaphthalen-1-yl carbamate] | – | 50% | – |
| NC(=O)O[C@H]1c2cc(Cl)ccc2CC[C@H]1O [Example 21, (1S, 2R)-7-chloro-2-hydroxy-1,2,3,4-tetrahydronaphthalen-1-yl carbamate] | 28.9% | 33.3% | – |
| NC(=O)O[C@@H]1c2cc(Cl)ccc2CC[C@@H]1O [Example 22, (1R, 2S)-7-chloro-2-hydroxy-1,2,3,4-tetrahydronaphthalen-1-yl carbamate] | 35.7% | 100% | – |
| NC(=O)O[C@H]1c2ccc(Cl)cc2CC[C@H]1O [Example 23, (1S, 2R)-6-chloro-2-hydroxy-1,2,3,4-tetrahydronaphthalen-1-yl carbamate] | – | 33.3% | – |
| NC(=O)O[C@H]1c2c(I)cccc2CC[C@H]1O [Example 27, (1S, 2R)-2-hydroxy-8-iodo-1,2,3,4-tetrahydronaphthalen-1-yl carbamate] | 37.8% | – | responders at 200 mg/kg ([2]; po, dose 200 mg/kg, read-out: MES test (po) efficacy %): 100% |
| NC(=O)O[C@@H]1c2c(I)cccc2CC[C@@H]1O [Example 28, (1R, 2S)-2-hydroxy-8-iodo-1,2,3,4-tetrahydronaphthalen-1-yl carbamate] | 42.1% | 100% | – |
| NC(=O)O[C@@H]1CCc2cccc(Cl)c2[C@@H]1OC(N)=O [Example 29, (1S, 2R)-8-chloro-1,2,3,4-tetrahydronaphthalen-1,2-diyldicarbamate] | 30.3% | 66.6% | – |
| NC(=O)O[C@H]1CCc2cccc(Cl)c2[C@H]1OC(N)=O [Example 30, (1R, 2S)-8-chloro-1,2,3,4-tetrahydronaphthalen-1,2-diyl dicarbamate] | 28.4% | – | responders at 400 mg/kg ([2]; po, dose 400 mg/kg, read-out: MES test (po) efficacy %): 33.3% |
| NC(=O)O[C@@H]1CCc2cccc(I)c2[C@@H]1OC(N)=O [Example 36, (1S, 2R)-8-iodo-1,2,3,4-tetrahydronaphthalen-1,2-diyl dicarbamate] | 72.2% | – | responders at 300 mg/kg [2, 5]: 33.3% |
| NC(=O)O[C@H]1CCc2cccc(I)c2[C@H]1OC(N)=O [Example 37, (1R, 2S)-8-iodo-1,2,3,4-tetrahydronaphthalen-1,2-diyl dicarbamate] | – | – | responders at 300 mg/kg [2, 5]: 33.3% |
| NC(=O)O[C@@H]1CCc2ccccc2[C@@H]1OC(N)=O [Example 38, (1S, 2R)-1,2,3,4-tetrahydronaphthalen-1,2-diyl dicarbamate] | – | 25% | – |
| COCO[C@H]1c2c(Cl)cccc2CC[C@H]1OC(N)=O [Example 40, (1S, 2R)-8-chloro-1-(methoxymethoxy)-1,2,3,4-tetrahydronaphthalen-2-yl carbamate] | – | 100% | Lithium pilocarpine model (pre) efficacy % [3]: 66.6% |
| NC(=O)O[C@H]1Cc2cccc(F)c2[C@H]1O [Example 56, (1R, 2S)-7-fluoro-1-hydroxy-2,3-dihydro-1H-inden-2-yl carbamate] | 43.2% | – | ED50 ([2]; po): 45.6 mg/kg |
| NC(=O)O[C@H]1c2cccc(Cl)c2C[C@H]1O [Example 62, (1S, 2R)-4-chloro-2-hydroxy-2,3-dihydro-1H-inden-1-yl carbamate] | – | – | ED50 ([2]; po): 53.1 mg/kg; ED50 [4]: 24.5 mg/kg |
| NC(=O)O[C@@H]1Cc2c(Cl)cccc2[C@@H]1O [Example 68, (1S, 2R)-4-chloro-1-hydroxy-2,3-dihydro-1H-inden-2-yl carbamate] | – | – | ED50 ([2]; po): 61.2 mg/kg; ED50 [4]: 14.4 mg/kg |
| NC(=O)O[C@H]1c2c(F)cccc2C[C@H]1O [Example 69, (1S, 2R)-7-fluoro-2-hydroxy-2,3-dihydro-1H-inden-1-yl carbamate] | – | 33.3% | – |
| COCO[C@@H]1c2c(Cl)cccc2C[C@@H]1OC(N)=O [Example 72, (1R, 2S)-7-chloro-1-(methoxymethoxy)-2,3-dihydro-1H-inden-2-yl carbamate] | 21.4% | – | – |
| COCO[C@H]1Cc2cccc(Cl)c2[C@H]1OC(N)=O [Example 76, (1R, 2S)-7-chloro-2-(methoxymethoxy)-2,3-dihydro-1H-inden-1-yl carbamate] | 59.2% | 100% | – |
| NC(=O)O[C@H]1Cc2cccc(Cl)c2[C@H]1OC(N)=O [Example 78, (1R, 2S)-7-chloro-2,3-dihydro-1H-inden-1,2-diyl dicarbamate] | 62.3% | 33.3% | – |
